# Experimental data published in patent US7695971B2, “Use of non-absorbable fat in determining dietary fat absorption” (Children's Hospital Medical Center, priority 2003, dated 2010).
# Experiments:
# [1] = Fat absorption by sucrose behenate marker method, mice (Example 1)
# Protocol: (§1) These two diets further have the following composition by weight: about 16% fat, 45% non-fat dry milk, and 39% sucrose, providing 30:15:55 fat:protein:carbohydrate energy %. Non-fat dry milk comprised 60% carbohydrate and 40% protein by weight. The fat composition (% by weight) is given for each diet as listed below. […] Aliquots of approximately 10 microliters of each fat blend are set aside and later analyzed for fatty acid analysis. The fat blends are added to non-fat dry milk and sucrose and mixed with an electric mixer for 5 minutes. The prepared diets are placed in a capped glass bottle and stored at 4° C. until used.
# (§2) The feeding and fecal collection regimen for rodents includes two days of test diet and three days of fecal collection. Prior to the study, the animals eat commercial chow ad libitum. Test diets, also fed ad libitum, replace chow on days 0 and 1, and chow is returned to the animals on day 2. Fecal collections are made on days 1, 2, and 3. The feeding and feces collection regimen is illustrated in the following table A:
# (§3) In general sample sizes of 10-20 milligrams provide a 5 to 10-fold excess of behenate in terms of the sensitivity of the gas chromatograph. The weighed fecal sample is ground into small particles with a spatula and placed in a 20 mL vial for saponification, methylation, and extraction. The method for saponification and methylation of fatty acids for gas chromatographic analysis can be that reported by Mecalfe (Metcalfe, L D et al. (1966). Anal. Chem. 38: 514-515). Four mL of 0.5N methanolic sodium hydroxide are added to the vial, which is then heated in a water bath at ˜80° C. for 5 mins. After a brief cooling period, 3 mL of BF3 in methanol (14% borontrifluoride and 86% methanol) are added to methylate the sample. After another five minutes of heating in the waterbath, the sample vial is allowed to cool to allow handling. Two mL of a saturated solution of sodium chloride and 10 mL of hexane are added to the vial. The samples are then mixed with a vortex mixer for one minute. Centrifugation can be used (2500 rpm at 1 min) to expedite the process of separation into two layers. The hexane fraction is transferred by pipette into a 20 mL vial that contains ˜10 mg of sodium sulfate to dry the sample. The hexane solution is removed for gas chromatograph analysis. An injection volume of 1 μL of the 10 mL of hexane is analyzed.
# Samples are analyzed with a gas chromatograph (GC) such as a Shimadzu GC-17A equipped with autosampler and autoinjector. Analysis of fatty acid methyl esters is then based on areas calculated with Shimadzu Class VP 4.3 software. An example of an appropriate column is one that can be obtained from J&W Scientific, DB-23 (123-2332): 30 m (length), I.D. (mm) 0.32 widebore, film thickness of […], although any suitable column can be substituted. Fatty acid identification is made by the use of comparison of retention times with those of authenticated standards. The conditions for the GC analysis in the present example are: Column temperature ramping by holding at 120° C. for one minute followed by an increase of 5° C./min from 120-240° C. The temperature of the injector and flame ionization detector is 250° C. A split (8:1) injection mode is used. The carrier gas is helium with a column flow rate of 2.5 mL/min. Under these conditions, the retention time of methyl behenate is 18.7 min.
# The absorption of fatty acids is calculated with formula II:
# [formula] • where Fd=sum of the masses of all dietary fatty acids (or that of an individual fatty acid) other than behenic acid, • Bd=mass of dietary behenic acid, • Ff=sum of the mass of all fecal fatty acids (or that of an individual fatty acid) other than behenic acid, and • Bf=mass of fecal behenic acid.
# [2] = Fat absorption by sucrose behenate marker method, rats (Example 2)
# Protocol: as §1, §2, §3
# Samples are analyzed with a gas chromatograph (GC) such as a Shimadzu GC-17A equipped with autosampler and autoinjector. Analysis of fatty acid methyl esters is then based on areas calculated with Shimadzu Class VP 4.3 software. […]
# The absorption of fatty acids is calculated with formula II: […]
structure (smiles),measurement,setting,value
CCCCCCCCCCCCCCCC(=O)O [Palmitic acid],Percent in Feces (Mean ± SEM),"[1]; male, C57B1/6, mouse, in vivo",18.3 ± 0.5%
same,absorption of individual fatty acid from safflower oil,"[2]; rat, in vivo",90.1±0.3%
CCCCCCCCCCCCCCCCCC(=O)O [Stearic acid],Percent in Feces (Mean ± SEM),"[1]; male, C57B1/6, mouse, in vivo",5.28 ± 0.3%
same,absorption of individual fatty acid,"[1]; male, C57B1/6, mouse, in vivo",77.3±2.1%
same,absorption of individual fatty acid from safflower oil,"[2]; rat, in vivo",75.9±0.3%
"CCCCCCCCCCCCCCCCCCCCCC(=O)O [behenic acid, reference compound]","behenic acid in feces, of the total fatty acids",[1]; mice fed Safflower Oil Diet,33.5-66.4%
same,"behenic acid in feces, of the fatty acids",[1]; mice fed Safflower Oil and Olestra Diet,12.5-19.3%
CCCCC/C=C\C/C=C\CCCCCCCC(=O)O [linoleic acid],Percent in Feces (Mean ± SEM),"[1]; male, C57B1/6, mouse, in vivo",27.7 ± .6%
same,absorption of individual fatty acid from safflower oil (in words),"[1]; mouse, in vivo",nearly complete
same,absorption of individual fatty acid from safflower oil (in words),"[2]; rat, in vivo",essentially complete
CCCCCCCC/C=C\CCCCCCCC(=O)O [oleic],Percent in Feces (Mean ± SEM),[1]; fecal samples from mice ingesting Safflower Oil and Olestra Diet,24.7 ± 01.0%
same,absorption of individual fatty acid from safflower oil (in words),"[1]; mice, Safflower Oil Diet",nearly complete
same,absorption of individual fatty acid from safflower oil,"[2]; rats, fecal collections of days 2 and 3",90.9±0.5%
